Test results from patent US20100190737A1, “COMPOSITIONS COMPRISING INOSINE AND OROTIC ACID AND METHODS OF USE THEREOF FOR THE TREATMENT OF CERTAIN HEART CONDITIONS AND ENHANCEMENT OF WORK CAPACITY” (NUTRITIONAL RESEARCH GROUP LLC, priority 2009, published 2010).
Several values for one entry are separate records, joined by “and”; a condition that tells them apart may be missing. Identical values can stand only once.

What was measured:
[1] = test system: white rats; assay: Long-term (6 months) work capacity in trained and non-trained rats; details: for Glycogen in m. quadriceps, After work / Glycogen in m. quadriceps, In rest: end of experiments; for Swimming time After 6 mo.: INO 25 mg/kg, PO 50 mg/kg
Method: Seventy two white rats were randomly placed in 6 groups (12 animals each), to test the effectiveness of training and to determine morphological and physiological alterations in the rats. In Group I, control rats were nontrained and not administered either of inosine or the combination of inosine and orotate; Group II comprised non-trained rats to which were administered inosine (25 mg/kg/body weight; Group III comprised non-trained rats to which were administered the combination of inosine plus potassium orotate (25 mg/kg/body weight of inosine and 50 mg/kg/body weight potassium orotate); Group IV comprised trained rats that were not administered either of inosine or the combination of inosine and orotate; Group V comprised trained rats to which was administered inosine alone (25 mg/kg/body weight), and Group VI comprised trained rats to which was administered the combination of inosine plus potassium orotate (25 mg/kg/body weight of inosine and 50 mg/kg/body weight potassium orotate).
Training of rats consisted of their forced swimming in a water bath (28-30° C.) with a weight fixed on their backs (7.5% of the rat body weight). During the first two weeks the animals swam daily for 5-10 minutes, after which we determined the individual maximum time of swimming to exhaustion (i.e. maximum work capacity) for each animal and then calculated the mean maximum time for each group. After 2 weeks these initial maximum work capacity values were used for planning and performing additional swimming training.
The functional condition of the rats at rest was estimated from their work capacity (maximum swimming time), body weight increase, EKG tests, oxygen consumption and sodium and potassium levels in the myocardium in a relatively quiet state. The morphological state of the heart and other viscera were rated from their absolute and relative weights, and also from histological and histochemical examinations of the myocardium. Also determined were the amounts of glycogen in the m. quadriceps (quadriceps group of muscles) of the hip, the myocardium and the liver. All the quantitative results obtained were processed with conventional statistical procedures.

[2] = test system: rats with experimental aortic stenosis; assay: Long term (12 month) experimental aortic stenosis; type: in vivo, rat; details: for Mortality %: 12 month study, 15 rats per group, inosine 25, potassium orotate 50 mg/kg/day from day 45 for 10.5 months, untreated stenosis 47
Method: A 12 month study using 60 white unbred male rats with initial body weights of 110-120 g, divided into four experimental groups, each group with 15 rats. Group I included intact animals (controls); Group II—rats with experimental aortic stenosis (untreated stenosed controls); Group III rats with experimental aortic stenosis given inosine in doses of 25 mg/kg/day; and Group IV rats with experimental aortic stenosis given both inosine and an orotic acid (in the instant study potassium orotate was used, however, as the orotic acid comprises 93-95% percent of any of the orotates, the results achieved are indicative of usage of any of the orotates including the potassium orotate used herein) combination in doses of 25 and 50 mg/kg/day, respectively, intragastrically, using a metal curved tube, beginning from the 45th day after the creation date of the abdominal aortic stenosis, and continuing for 10.5 months. The abdominal aortic stenosis was produced by the method of Beznak, referred to hereinabove, modified by Kogan, referred to above.
During the experimental period the animals in all four groups had regular measurements (recordings) of body weight and the 3-standard lead EKG-ms and 5-plane pericardial vector-cardiograms (VCG). At the beginning and end of the experimental period they also underwent tests for the endurance of a single, dosed physical exercise—forced swimming in a pool at 28-30° C., until maximally exhausted. Specifically, an animal had fixed to its tail a lead weight weighing approximately 7.5% percent of the animal's body weight became submerged due to the inability to continue swimming. At the end of the experimental period, the animals were sacrificed, and their hearts, thymuses, livers, adrenals and thyroids were weighed and their relative weights per 100 g body weight were calculated and recorded. Histological figures of sectioned cardiac muscle stained with hematoxilin-eosin were prepared by Van Hison's technique and examined for any attendant alterations in the normal histology of the heart. During the experiment, (untreated aortic stenosis) 8 of the 15 rats in Group II died, while in Group III (treated stenosis w/inosine) and Group IV (treated stenosis w/inosine and potassium orotate)—only 3 rats in each group died. […] The observed time period wherein the rats could swim were as follows: Groups I animals 45±2.0 minutes; Group II 6.5±2.1 minutes; Group III 16±1.2 minutes; and Group IV 32±4 minutes, respectively. Thus, the group receiving the combination of inosine and potassium orotate performed far better than Group II (untreated stenosis) and had doubled the work capacity of Group III (treated with inosine only). The relative weight of the heart in animals in Groups II, III and IV was higher than in Group I (control group) by 67%, 36% and 56%, respectively. (See Tables 2 A-B). The hearts of Group II animals were in the state of eccentric hypertrophy which explains the higher weight (see FIG. 5). The left ventricular wall in the animals of Group II was 8% thinner than in rats of Group I as a result of the eccentric condition. In rats of Groups III and IV the left ventricular wall was 30% and 46% thicker, respectively, than the rats in group I and they were all in the state of concentric heart hypertrophy.

Compound: OC[C@H]1O[C@@H](n2cnc3c(O)ncnc32)[C@H](O)[C@@H]1O [inosine]
- animal body weights ([1]; after 6 months): did not materially alter animal body weights
- HEART RATE ([1]; after 6 months training): 300 ± 5.2 beats per minute
- PQ ([1]; after 6 months training): 0.047 ± 0.03
- QRS ([1]; after 6 months training): 0.031 ± 0.004
- QT ([1]; after 6 months training): 0.076 ± 0.001
- Systolic Index ([1]; after 6 months training): 38 ± 6.3
- ΣR ([1]; after 6 months training): 17 ± 0.5 mm
- toxic effects on the functional state of the animals, morphology of the myocardium ([1]; rat, in vivo): did not manifest any toxic effects
- Heart weight after 6 mo. ([1]; trained rats): 359 ± 3.9 mg/100gk BW
- ORGAN WEIGHT Heart ([1]; trained rats): 359.3 ± 4.5 mg PER 100 GRAMs Body Weight
- P/S In all rats group ([1]; trained rats): 1.34 ± 0.12
- P/S In quiet state ([1]; trained rats): 1.16 ± 0.08
- P/S In rat sacrificed after intense physical exercise ([1]; trained rats): 1.55 ± 0.04
- Potassium (myocardium) ([1]; trained rats): 0408 ± 0.015 mcq/gram dry tissue
- Sodium (myocardium) ([1]; trained rats): 0.304 ± 0.018 mcq/gram dry tissue
- Swimming time Before ([1]; trained rats): 65 ± 6.6 min
- Glycogen in m. quadriceps, After work ([1]; trained rats): 558 ± 13.4
- Glycogen in m. quadriceps, In rest ([1]; trained rats): 889 ± 26.0
- Swimming time After 6 mo. ([1]; trained rats, trained control 142 ± 2.4): 180 ± 3.4 min
- Heart weight after 6 mo. ([1]; untrained rats): 302 ± 91 mg/100gk BW
- ORGAN WEIGHT Heart ([1]; untrained rats): 309.4 ± 9.7 mg PER 100 GRAMs Body Weight
- Oxygen consumption End of experiment ([1]; untrained rats): 26.0 ± 0.82 ml/min/kg BW
- P/S In all rats group ([1]; untrained rats): 1.85 ± 0.05
- P/S In quiet state ([1]; untrained rats): 2.01 ± 0.3
- P/S In rat sacrificed after intense physical exercise ([1]; untrained rats): 1.67 ± 0.09
- Potassium (myocardium) ([1]; untrained rats): 0481 ± 0.03 mcq/gram dry tissue
- Sodium (myocardium) ([1]; untrained rats): 0.261 ± 0.018 mcq/gram dry tissue
- Swimming time Before ([1]; untrained rats): 65 ± 5.0 min
- Glycogen in m. quadriceps, After work ([1]; untrained rats): 450 ± 28.3
- Glycogen in m. quadriceps, In rest ([1]; untrained rats): 829 ± 42.0
- Swimming time After 6 mo. ([1]; untrained rats): 70 ± 4.0 min
- HEART RATE ([1]; untrained, after 6 months): 452 ± 8.6 beats per minute
- PQ ([1]; untrained, after 6 months): 0.054 ± 0.003
- QRS ([1]; untrained, after 6 months): 0.026 ± 0.003
- QT ([1]; untrained, after 6 months): 0.06 ± 0.001
- Systolic Index ([1]; untrained, after 6 months): 42.5 ± 9.7
- ΣR ([1]; untrained, after 6 months): 14 ± 0.7 mm
- EKG QRS 1½ months ([2]; 1½ months (before treatment)): 0.021 ± 0.004 s
- EKG R Wave Voltage 1½ months ([2]; 1½ months (before treatment)): 0.38 ± 0.05 mV
- EKG Stroke Index 1½ months ([2]; 1½ months (before treatment)): 47 ± 10%
- Heart Rate 1½ months ([2]; 1½ months (before treatment)): 410 ± 11 beats/min
- T Wave Voltage 1½ months ([2]; 1½ months (before treatment)): 0.21 ± 0.01 mV
- Mortality % [2]: 20%
- Mortality % ([2]; listed as Inosine): 20%
- EKG QRS 12 months ([2]; 12 months): 0.022 ± 0.001 s
- EKG R Wave Voltage 12 months ([2]; 12 months): 0.9 ± 0.09 mV
- EKG Stroke Index 12 months ([2]; 12 months): 34 ± 1.2%
- Heart Rate 12 months ([2]; 12 months): 420 ± 16 beats/min
- T Wave Voltage 12 months ([2]; 12 months): 0.29 ± 0.05 mV
- left ventricular wall thicker than in Group I ([2]; 12 months): 30%
- relative weight of the heart higher than in Group I (control) ([2]; 12 months): 36%
- QRS-T angle 120° to 180° ([2]; 12 months after surgery): 5
- Relative weight of Heart ([2]; 12 months after surgery): 387 ± 9.5 mg/100 g
- Thickness of Left Ventricular Wall ([2]; 12 months after surgery): 3.9 ± 0.14 mm
- VGC QRS Amplitude ([2]; 12 months after surgery): 3.2 ± 0.12 mV
- VGC QRS Area ([2]; 12 months after surgery): 8.3 ± 1.1 cm^2
- VGC QRS Not closed ([2]; 12 months after surgery): 58%
- VGC T Amplitude ([2]; 12 months after surgery): 0.6 ± 0.01 mV
- Working capacity (min) 1½ months ([2]; forced swimming, 1½ months after surgery (treatment began on the 45th day)): 43 ± 4.6 min
- Working capacity (min) 12 months ([2]; forced swimming, 12 months after surgery, 10.5 months of treatment): 16 ± 1.2 min and 16 ± 1.3 min
- appearance of the myocardium, light micrographs (FIG. 6) ([2]; haemotoxylin-eosin stained sections): normal appearance
- rats that died during the experiment ([2]; of 15 rats per group, untreated stenosis 8): 3 rats
- development of cardiac eccentric hypertrophy ([2]; prolonged administration): prevented development of cardiac eccentric hypertrophy
- ultrastructure of left ventricular myocardium, mitochondria (FIG. 7) ([2]; rat, in vivo): normal sized mitochondria
- critical heart weight enhanced by ([2]; versus critical weight of rats with the same body weight): 16%
